Here are results for 35 molecules from ChEMBL document CHEMBL5344474, “Molecular editing of NSC-666719 enabling discovery of benzodithiazinedioxide-guanidines as anticancer agents” (RSC Med Chem, 2024).

pIC50: −log10 of the molar value. Where only a bound is given, the exact number is not on record here.

The nature of data set [1]: Selectivity index, ratio of IC50 for HEK293 cells to IC50 for human MCF7 cells. The settings on record: HEK293 cells versus MCF7 cells.
Data set [2] is described as follows: Selectivity index, ratio of IC50 for HEK293 cells to IC50 for human MDA-MB-231 cells. The settings on record: HEK293 cells versus MDA-MB-231 cells.
The test system of a further data set is MCF7. The data set can be described thus: Antiproliferative activity against human MCF7 cells incubated for 72 hrs by MTT assay. The settings on record: MCF7, 72 h.
Data set [3] in a line: Selectivity index, ratio of IC50 for HEK293 cells to IC50 for human HCT-116 cells. Conditions: HEK293 cells versus HCT-116 cells.
The subject of a further data set is MDA-MB-231. The data set can be described thus: Antiproliferative activity against human MDA-MB-231 cells incubated for 72 hrs by MTT assay. The settings on record: MDA-MB-231, 72 h.

For `Cc1cc2c(cc1Cl)SC(/N=C(/N)Nc1ccc3ncccc3c1)=NS2(=O)=O`, the selectivity ratio in data set [1], in data set [2] and in data set [3] was more than 65 in each case. Further, the pIC50 is 5.42 in the data set with MCF7 and 5.24 with MDA-MB-231.

Take `COc1cc(N/C(N)=N\C2=NS(=O)(=O)c3cc(C)c(Cl)cc3S2)cc(OC)c1OC`: the selectivity ratio in data set [1], in data set [2] and in data set [3] was more than 65 in each case. Besides, the results for the pIC50 with MCF7 and in the data set with MDA-MB-231 were 5.62 and 5.39, respectively.

As to `Cc1cc2c(cc1Cl)SC(/N=C(/N)Nc1ccc3ccccc3n1)=NS2(=O)=O`, the selectivity ratio in data set [1], in data set [2] and in data set [3] was more than 65 in each case. Besides, the pIC50 is 5.64 with MCF7 and 5.42 in the data set on MDA-MB-231.

Consider `Cc1cc(S(=O)(=O)Nc2nc(Nc3cccc4cccnc34)n[nH]2)c(S)cc1Cl`, for which the selectivity ratio in data set [1], in data set [2] and in data set [3] was more than 65 each time. For the same molecule, the pIC50 with MCF7 was 5.09; with MDA-MB-231 it was 5.06.

`Cc1cc(S(=O)(=O)Nc2nc(Nc3ccc4cc(O)ccc4c3)n[nH]2)c(S)cc1Cl`: the selectivity ratio in data set [1], in data set [2] and in data set [3] was more than 65 each time. Further, the pIC50 with MCF7 was 5.12; in the data set with MDA-MB-231, 5.07.

With `Cc1cc2c(cc1Cl)SC(/N=C(/N)Nc1ccc3nccnc3c1)=NS2(=O)=O`, the selectivity ratio in data set [1], in data set [2] and in data set [3] was more than 65 throughout. Moreover, the pIC50 was 5.60 in the data set on MCF7 and 5.39 with MDA-MB-231.

`Cc1cc2c(cc1Cl)SC(/N=C(/N)Nc1ccc3c(ccc(=O)n3C)c1)=NS2(=O)=O`: the selectivity ratio in data set [1], in data set [2] and in data set [3] was more than 65 in each case. Besides, the values for the negative logarithm of the IC50 (pIC50) with MCF7 and in the data set on MDA-MB-231 were 5.40 and 5.24, respectively.

`Cc1cc2c(cc1Cl)SC(/N=C(/N)Nc1ccc3ccccc3c1)=NS2(=O)=O`: the selectivity ratio in data set [1], in data set [2] and in data set [3] was more than 65 in each case. In addition, the pIC50 is 5.46 in the data set on MCF7 and 5.24 with MDA-MB-231.

Turning to `Cc1cc2c(cc1Cl)SC(/N=C(/N)Nc1cnc3ccccc3c1)=NS2(=O)=O`, the selectivity ratio in data set [1], in data set [2] and in data set [3] was more than 65 in each case. In addition, the pIC50 with MCF7 is 5.64; in the data set on MDA-MB-231 it was 5.39.

Turning to `Cc1cc(S(=O)(=O)Nc2nnc(Nc3ccccc3)[nH]2)c(S)cc1Cl`, the selectivity ratio in data set [1], in data set [2] and in data set [3] was more than 65 each time. In addition, the pIC50 is 5.20 with MCF7 and 5.15 with MDA-MB-231.

Consider `Cc1cc2c(cc1Cl)SC(/N=C(/N)NC(=O)c1ccc3ccccc3c1)=NS2(=O)=O`, for which the selectivity ratio in data set [1], in data set [2] and in data set [3] was more than 65 throughout. Also, the pIC50 is 5.62 in the data set on MCF7 and 5.40 in the data set on MDA-MB-231.

On to `Cc1cc2c(cc1Cl)SC(/N=C(/N)Nc1cccc3cccnc13)=NS2(=O)=O`, for which the selectivity ratio in data set [1], in data set [2] and in data set [3] was more than 65 throughout. Besides, the results for the pIC50 in the data set on MCF7 and with MDA-MB-231 were 5.44 and 5.25, respectively.

Consider `Cc1cc(S(=O)(=O)Nc2nc(Nc3cccc4ccccc34)n[nH]2)c(S)cc1Cl`, for which the selectivity ratio in data set [1], in data set [2] and in data set [3] was more than 65 each time. The results for the negative-log IC50 (pIC50) in the data set on MCF7 and in the data set on MDA-MB-231 were 5.12 and 5.07, respectively.

`Cc1cc2c(cc1Cl)SC(/N=C(/N)Nc1ccc(Cl)cc1)=NS2(=O)=O`: the selectivity ratio in data set [1], in data set [2] and in data set [3] was more than 65 each time. For the same molecule, the pIC50 in the data set with MCF7 is 5.26; with MDA-MB-231 it was 5.18.

As for `COc1cc2nccc(Nc3n[nH]c(NS(=O)(=O)c4cc(C)c(Cl)cc4S)n3)c2cc1OC`, the selectivity ratio in data set [1], in data set [2] and in data set [3] was more than 65 throughout. Also, the negative-log IC50 (pIC50) in the data set with MCF7 was 5.08; in the data set with MDA-MB-231, 5.04.

For the molecule `Cc1cc(S(=O)(=O)Nc2nc(Nc3ccc4cnccc4c3)n[nH]2)c(S)cc1Cl`, the selectivity ratio in data set [1], in data set [2] and in data set [3] was more than 65 in each case. The pIC50 in the data set on MCF7 is 5.12; in the data set with MDA-MB-231, 5.09.

On to `COc1cccc2c(O)ccc(N/C(N)=N\C3=NS(=O)(=O)c4cc(C)c(Cl)cc4S3)c12`, for which the selectivity ratio in data set [1], in data set [2] and in data set [3] was more than 65 in each case. The negative-log IC50 (pIC50) in the data set with MCF7 is 5.49; with MDA-MB-231, 5.20.

On to `Cc1cc(S(=O)(=O)Nc2nc(Nc3ccc(Br)cc3)n[nH]2)c(S)cc1Cl`, for which the selectivity ratio in data set [1], in data set [2] and in data set [3] was more than 65 throughout. The pIC50 with MCF7 is 5.51; in the data set with MDA-MB-231 it was 5.41.

Turning to `Cc1cc(S(=O)(=O)Nc2nc(Nc3ccc(Cl)cc3)n[nH]2)c(S)cc1Cl`, the pIC50 with MCF7 was 5.13; in the data set with MDA-MB-231, 5.08.

As for `Cc1cc2c(cc1Cl)SC(/N=C(/N)Nc1ccc3cnccc3c1)=NS2(=O)=O`, the selectivity ratio in data set [1], in data set [2] and in data set [3] was more than 65 each time. Besides, the values for the pIC50 in the data set with MCF7 and in the data set on MDA-MB-231 were 5.27 and 5.14, respectively.

Regarding `Cc1cc(S(=O)(=O)Nc2nc(Nc3cccc4cnccc34)n[nH]2)c(S)cc1Cl`, the selectivity ratio in data set [1], in data set [2] and in data set [3] was more than 65 in each case. Besides, the negative logarithm of the IC50 (pIC50) in the data set on MCF7 is 5.13; in the data set on MDA-MB-231, 5.06.

For the molecule `Cc1cc2c(cc1Cl)SC(/N=C(/N)Nc1ccnc3ccccc13)=NS2(=O)=O`, the selectivity ratio in data set [1], in data set [2] and in data set [3] was more than 65 throughout. Further, the pIC50 is 5.51 in the data set on MCF7 and 5.24 in the data set on MDA-MB-231.

For `Cc1cc2c(cc1Cl)SC(/N=C(/N)Nc1ccc3cc(O)ccc3c1)=NS2(=O)=O`, the selectivity ratio in data set [1], in data set [2] and in data set [3] was more than 65 in each case. For the same molecule, the pIC50 was 5.49 with MCF7 and 5.36 with MDA-MB-231.

For `COc1ccc2ccccc2c1Nc1n[nH]c(NS(=O)(=O)c2cc(C)c(Cl)cc2S)n1`, the selectivity ratio in data set [1], in data set [2] and in data set [3] was more than 65 in each case. Besides, the pIC50 was 5.11 in the data set with MCF7 and 5.07 in the data set on MDA-MB-231.

As to `COc1ccc(Nc2n[nH]c(NS(=O)(=O)c3cc(C)c(Cl)cc3S)n2)cc1`, the selectivity ratio in data set [1], in data set [2] and in data set [3] was more than 65 in each case. Further, the pIC50 with MCF7 was 5.11; in the data set with MDA-MB-231, 5.07.

For `Cc1cc(S(=O)(=O)Nc2nc(Nc3cnc4ccccc4c3)n[nH]2)c(S)cc1Cl`, the selectivity ratio in data set [1], in data set [2] and in data set [3] was more than 65 throughout. For the same molecule, the figures for the negative-log IC50 (pIC50) with MCF7 and with MDA-MB-231 were 5.11 and 5.07, respectively.

Turning to `COc1nc(N/C(N)=N\C2=NS(=O)(=O)c3cc(C)c(Cl)cc3S2)c2ccn(C)c2n1`, the selectivity ratio in data set [1], in data set [2] and in data set [3] was more than 65 each time. Further, the negative-log IC50 (pIC50) is 5.60 in the data set with MCF7 and 5.40 in the data set on MDA-MB-231.

Take `Cc1cc(S(=O)(=O)Nc2nc(Nc3ccc4ncccc4c3)n[nH]2)c(S)cc1Cl`: the selectivity ratio in data set [1], in data set [2] and in data set [3] was more than 65 each time. Also, the pIC50 with MCF7 was 5.15; in the data set with MDA-MB-231, 5.09.

`Cc1cc2c(cc1Cl)SC(/N=C(/N)Nc1cccc3ncccc13)=NS2(=O)=O`: the selectivity ratio in data set [1], in data set [2] and in data set [3] was more than 65 each time. The values for the pIC50 in the data set on MCF7 and with MDA-MB-231 were 5.44 and 5.27, respectively.

`COc1cc2nccc(N/C(N)=N\C3=NS(=O)(=O)c4cc(C)c(Cl)cc4S3)c2cc1OC`: the selectivity ratio in data set [1], in data set [2] and in data set [3] was more than 65 throughout. For the same molecule, the figures for the pIC50 in the data set on MCF7 and with MDA-MB-231 were 5.46 and 5.21, respectively.

Regarding `COc1ccc(Nc2n[nH]c(NS(=O)(=O)c3cc(C)c(Cl)cc3S)n2)c(OC)c1OC`, the selectivity ratio in data set [1], in data set [2] and in data set [3] was more than 65 in each case. The pIC50 was 5.19 with MCF7 and 5.11 in the data set on MDA-MB-231.

As to `COc1ccc2ccccc2c1N/C(N)=N\C1=NS(=O)(=O)c2cc(C)c(Cl)cc2S1`, the selectivity ratio in data set [1], in data set [2] and in data set [3] was more than 65 in each case. Also, the pIC50 in the data set on MCF7 was 5.52; in the data set on MDA-MB-231, 5.37.

As to `Cc1cc(S(=O)(=O)Nc2nc(Nc3ccnc4cc(Cl)ccc34)n[nH]2)c(S)cc1Cl`, the selectivity ratio in data set [1], in data set [2] and in data set [3] was more than 65 throughout. For the same molecule, the pIC50 was 5.40 with MCF7 and 5.32 in the data set on MDA-MB-231.

Regarding `CC(=O)c1cn(C)c2ccc(N/C(N)=N\C3=NS(=O)(=O)c4cc(C)c(Cl)cc4S3)cc12`, the selectivity ratio in data set [1], in data set [2] and in data set [3] was more than 65 each time. The figures for the pIC50 in the data set with MCF7 and with MDA-MB-231 were 5.54 and 5.28, respectively.

On to `COc1ccc(N/C(N)=N\C2=NS(=O)(=O)c3cc(C)c(Cl)cc3S2)cc1`, for which the selectivity ratio in data set [1], in data set [2] and in data set [3] was more than 65 throughout. The pIC50 with MCF7 is 5.48; with MDA-MB-231, 5.27.
